Measured values published in BindingDB's records for PubMed 7616416 (Third Tokushima Institute of New Drug Research, 1995).
Values joined by “and” are separate entries in the source; they are usually repeats but may differ in a detail not shown here. Equal entries are not always repeated.

Biological target: D(2) dopamine receptor (Rattus norvegicus, UniProt P61169)
Sequence (P61169 whole entry): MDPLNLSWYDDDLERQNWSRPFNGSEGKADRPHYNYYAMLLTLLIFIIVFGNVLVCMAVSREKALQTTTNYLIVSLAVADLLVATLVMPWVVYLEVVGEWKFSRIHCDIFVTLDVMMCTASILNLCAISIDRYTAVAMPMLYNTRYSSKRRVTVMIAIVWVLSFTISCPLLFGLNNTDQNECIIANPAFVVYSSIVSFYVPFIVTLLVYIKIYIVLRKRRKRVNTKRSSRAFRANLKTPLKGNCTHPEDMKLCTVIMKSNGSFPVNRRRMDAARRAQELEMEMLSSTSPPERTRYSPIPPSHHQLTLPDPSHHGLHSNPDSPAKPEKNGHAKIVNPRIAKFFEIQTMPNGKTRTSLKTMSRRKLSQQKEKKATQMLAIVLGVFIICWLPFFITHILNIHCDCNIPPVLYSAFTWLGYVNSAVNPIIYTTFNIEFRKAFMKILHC

Ki: 19.8 nM and 18 nM and 9.8 nM
Structure (SMILES): Cc1cccc(N2CCN(CCCOc3ccc4ccc(=O)[nH]c4c3)CC2)c1C [NSC_163839]
